Measurements taken from PubChem BioAssay (NCI).
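How tested: cells in 96-well plates exposed to compound for 48 hours at five concentrations. GI50 is the concentration that inhibits growth by half. Definition used: TGI = concentration required for complete inhibition of growth.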

Key:
Assay in all cases: inhibition of tumour cell growth, NCI panel, 48 h
[1] = system: MALME-3M melanoma
[2] = system: SK-MEL-28 melanoma
[3] = system: SK-MEL-5 melanoma
[4] = system: SNB-75 CNS
[5] = system: SF-268 CNS
[6] = system: TK-10 renal
[7] = system: CAKI-1 renal
[8] = system: NCI-H522 lung
[9] = system: OVCAR-4 ovarian
[10] = system: UACC-62 melanoma
[11] = system: HOP-62 NSCLC
[12] = system: OVCAR-5 ovarian
[13] = system: NCI-H460 lung
[14] = system: SW-620 colon
[15] = system: RXF 393 renal
[16] = system: SK-MEL-2 melanoma
[17] = system: MDA-MB-231 breast
[18] = system: K-562 leukemia
[19] = system: NCI/ADR-RES ovarian
[20] = system: COLO 205 colon
[21] = system: MOLT-4 leukemia
[22] = system: EKVX NSCLC
[23] = system: OVCAR-8 ovarian
[24] = system: NCI-H23 lung
[25] = system: IGROV1 ovarian
[26] = system: M14 melanoma
[27] = system: 786-0 renal

What does the source list for `CCN(CC)c1ccc2c(c1)Oc1nc(N)c(C#N)c(N)c1C2Sc1ccc(C)cc1` (stereo not drawn)?
GI50 [1]: 1.68 µM; TGI [1]: 3.06 µM; GI50 [2]: 1.7 µM; TGI [2]: 3.09 µM; GI50 [3]: 1.76 µM; TGI [3]: 3.15 µM; GI50 [4]: 1.34 µM; TGI [4]: 2.63 µM; GI50 [5]: 1.67 µM; TGI [5]: 3.25 µM; GI50 [6]: 2.96 µM; TGI [6]: 4.48 µM; GI50 [7]: 1.46 µM; TGI [7]: 2.78 µM; GI50 [8]: 1.75 µM; TGI [8]: 3.17 µM; GI50 [9]: 1.75 µM; TGI [9]: 3.18 µM; GI50 [10]: 1.67 µM; TGI [10]: 3.07 µM; GI50 [11]: 1.76 µM; TGI [11]: 3.29 µM; GI50 [12]: 1.71 µM; TGI [12]: 3.12 µM; GI50 [13]: 1.39 µM; TGI [13]: 3.02 µM; GI50 [14]: 1.5 µM; TGI [14]: 3.21 µM; GI50 [15]: 1.77 µM; TGI [15]: 3.22 µM; GI50 [16]: 1.72 µM; TGI [16]: 3.12 µM; GI50 [17]: 1.45 µM; TGI [17]: 2.81 µM; GI50 [18]: 2.3 µM; TGI [18]: > 100 µM; GI50 [19]: 2.19 µM; TGI [19]: 5.04 µM; GI50 [20]: 1.81 µM; TGI [20]: 3.49 µM; GI50 [21]: 0.824 µM; TGI [21]: 4.3 µM; GI50 [22]: 0.605 µM; TGI [22]: 2.05 µM; GI50 [23]: 1.51 µM; TGI [23]: 3.08 µM; GI50 [24]: 1.26 µM; TGI [24]: 2.64 µM; GI50 [25]: 1.09 µM; TGI [25]: 2.36 µM; GI50 [26]: 1.57 µM; TGI [26]: 3.22 µM; GI50 [27]: 1.88 µM
